Drawing on patent US11702422B2, “Imidazopyridazines as modulators of IL-17” (Janssen Pharmaceutica NV, priority 2020, dated 2023), this text covers IC50 for 19 molecules.

Experiment [1] concerns the target IL-17A(FLAG-Tagged): IL-17RA(His-Tagged) (Homo sapiens, UniProt Q16552, K93Q). Kind of experiment: IL-17A(FLAG-Tagged): IL-17RA(His-Tagged) Binding Disruption Eu-HTRF Assay. The conditions noted are these: IL-17A/IL-17RA binding disruption, simple average if tested more than once. In a few lines: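 IC50 comes from a one-site competition fit of the HTRF 665/620 nm ratio. Compound dilutions (2-fold, 22 points) were held 1 h rt with FLAG-tagged IL-17A dimer, then His-tagged IL-17RA plus Eu-cryptate anti-FLAG and D2 anti-His antibodies were added for 2 h rt.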
For orientation: TR-FRET usually uses a lanthanide donor and a delayed reading to cut background.

Experiment [2] deals with IL-17A-induced G-CSF production in human normal keratinocyte (NHK). The experiment is described as follows: NHK Assay: IL-17A-induced G-CSF production in human normal keratinocytes. Type of experiment: cell-based. The conditions noted are these: Homo sapiens, Keratinocyte, 24 h, adult normal human keratinocytes, IL-17A 5 ng/mL, simple average if tested more than once. In a few lines:
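G-CSF released by primary adult human keratinocytes after 24 h at 37° C was quantified by HTRF via standard curve to give IC50. Stimulus was 5 ng/mL IL-17A pre-mixed 1 h at rt with compound dilutions, in 5% FBS and 0.2% DMSO. Cell viability was assessed in parallel with CellTiter-Glo.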

Sequence of UniProt Q16552 (Q16552 with tags, fused parts or gaps K93Q): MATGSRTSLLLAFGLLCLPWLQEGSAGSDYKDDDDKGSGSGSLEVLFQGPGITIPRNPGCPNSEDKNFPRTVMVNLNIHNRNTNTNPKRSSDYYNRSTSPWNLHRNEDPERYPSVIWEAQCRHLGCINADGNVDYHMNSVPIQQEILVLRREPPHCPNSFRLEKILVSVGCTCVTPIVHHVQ

The term IC50 denotes the point on the concentration scale where inhibition reaches its midpoint. On to `COc1conc1C(=O)N[C@H](c1cn2ncc([C@H](NC(=O)CCC(F)(F)F)C3CC3)cc2n1)C1CCC(F)(F)CC1` [Example 372, N—((S)-(7-((R)-Cyclopropyl(4,4,4-trifluorobutanamido)methyl)imidazo[1,2-b]pyridazin-2-yl)(4,4-difluorocyclohexyl)methyl)-4-methoxyisoxazole-3-carboxamide], for which the IC50 in experiment [1] was 120 nM; in experiment [2], 740 nM.

With `CCOc1conc1C(=O)N[C@H](c1cn2ncc([C@H](NC(=O)CCC(F)(F)F)C3CC3)cc2n1)C1CCC(F)(F)CC1` [Example 373, N—((S)-(7-((R)-Cyclopropyl(4,4,4-trifluorobutanamido)methyl)imidazo[1,2-b]pyridazin-2-yl)(4,4-difluorocyclohexyl)methyl)-4-ethoxyisoxazole-3-carboxamide], the IC50 worked out at 62 nM in experiment [1] and 240 nM in experiment [2].

As for `CC(C)Oc1conc1C(=O)N[C@H](c1cn2ncc([C@H](NC(=O)CCC(F)(F)F)C3CC3)cc2n1)C1CCC(F)(F)CC1` [Example 374, N—((S)-(7-((R)-Cyclopropyl(4,4,4-trifluorobutanamido)methyl)imidazo[1,2-b]pyridazin-2-yl)(4,4-difluorocyclohexyl)methyl)-4-isopropoxyisoxazole-3-carboxamide], the IC50 in experiment [1] came out at 46 nM; in experiment [2], 240 nM.

Consider `O=C(CCC(F)(F)F)N[C@@H](c1cnn2cc([C@@H](NC(=O)c3nocc3OCC(F)F)C3CCC(F)(F)CC3)nc2c1)C1CC1` [Example 375, N—((S)-(7-((R)-Cyclopropyl(4,4,4-trifluorobutanamido)methyl)imidazo[1,2-b]pyridazin-2-yl)(4,4-difluorocyclohexyl)methyl)-4-(2,2-difluoroethoxy)isoxazole-3-carboxamide], for which the IC50 in experiment [1] was 43 nM; in experiment [2] it was 170 nM.

Take `O=C(CCC(F)(F)F)N[C@@H](c1cnn2cc([C@@H](NC(=O)c3nocc3OCCF)C3CCC(F)(F)CC3)nc2c1)C1CC1` [Example 376, N—((S)-(7-((R)-Cyclopropyl(4,4,4-trifluorobutanamido)methyl)imidazo[1,2-b]pyridazin-2-yl)(4,4-difluorocyclohexyl)methyl)-4-(2-fluoroethoxy)isoxazole-3-carboxamide]: the IC50 in experiment [1] stood at 79 nM; in experiment [2] it was 280 nM.

Turning to `O=C(CCC(F)(F)F)N[C@@H](c1cnn2cc([C@@H](NC(=O)c3nocc3CC(F)(F)F)C3CCC(F)(F)CC3)nc2c1)C1CC1` [Example 377, N—((S)-(7-((R)-Cyclopropyl(4,4,4-trifluorobutanamido)methyl)imidazo[1,2-b]pyridazin-2-yl)(4,4-difluorocyclohexyl)methyl)-4-(2,2,2-trifluoroethyl)isoxazole-3-carboxamide], the IC50 in experiment [1] was 60 nM; in experiment [2], 85 nM.

On to `CC(C)c1conc1C(=O)N[C@H](c1cn2ncc([C@H](NC(=O)CCC(F)(F)F)C3CC3)cc2n1)C1CCC(F)(F)CC1` [Example 378, N—((S)-(7-((R)-Cyclopropyl(4,4,4-trifluorobutanamido)methyl)imidazo[1,2-b]pyridazin-2-yl)(4,4-difluorocyclohexyl)methyl)-4-isopropylisoxazole-3-carboxamide], for which the IC50 in experiment [1] came out at 55 nM; in experiment [2], 95 nM.

`CC(C)c1nonc1C(=O)N[C@H](c1cn2ncc([C@H](NC(=O)CCC(F)(F)F)C3CC3)cc2n1)C1CCC(F)(F)CC1` [Example 379, N—((S)-(7-((R)-Cyclopropyl(4,4,4-trifluorobutanamido)methyl)imidazo[1,2-b]pyridazin-2-yl)(4,4-difluorocyclohexyl)methyl)-4-isopropyl-1,2,5-oxadiazole-3-carboxamide]: the results for the IC50 in experiment [1] and in experiment [2] were 17 nM and 30 nM, respectively.

On to `O=C(CCC(F)(F)F)N[C@@H](c1cnn2cc([C@@H](NC(=O)c3nonc3OC3CC3)C3CCC(F)(F)CC3)nc2c1)C1CC1` [Example 380, 4-Cyclopropoxy-N—((S)-(7-((R)-cyclopropyl(4,4,4-trifluorobutanamido)methyl)imidazo[1,2-b]pyridazin-2-yl)(4,4-difluorocyclohexyl)methyl)-1,2,5-oxadiazole-3-carboxamide], for which the values for the IC50 in experiment [1] and in experiment [2] were 48 nM and 30 nM, respectively.

Regarding `O=C(CCC(F)(F)F)N[C@@H](c1cnn2cc([C@@H](NC(=O)c3nonc3C3CC3)C3CCC(F)(F)CC3)nc2c1)C1CC1` [Example 381, 4-Cyclopropyl-N—((S)-(7-((R)-cyclopropyl(4,4,4-trifluorobutanamido)methyl)imidazo[1,2-b]pyridazin-2-yl)(4,4-difluorocyclohexyl)methyl)-1,2,5-oxadiazole-3-carboxamide], the IC50 in experiment [1] was 27 nM; in experiment [2], 31 nM.

Consider `O=C(CCC(F)(F)F)N[C@@H](c1cnn2cc([C@@H](NC(=O)c3nonc3OCC(F)(F)F)C3CCC(F)(F)CC3)nc2c1)C1CC1` [Example 382, N—((S)-(7-((R)-Cyclopropyl(4,4,4-trifluorobutanamido)methyl)imidazo[1,2-b]pyridazin-2-yl)(4,4-difluorocyclohexyl)methyl)-4-(2,2,2-trifluoroethoxy)-1,2,5-oxadiazole-3-carboxamide], for which the values for the IC50 in experiment [1] and in experiment [2] were 51 nM and 11 nM, respectively.

On to `O=C(CCC(F)(F)F)N[C@@H](c1cnn2cc([C@@H](NC(=O)c3nonc3OCC(F)F)C3CCC(F)(F)CC3)nc2c1)C1CC1` [Example 383, N—((S)-(7-((R)-Cyclopropyl(4,4,4-trifluorobutanamido)methyl)imidazo[1,2-b]pyridazin-2-yl)(4,4-difluorocyclohexyl)methyl)-4-(2,2-difluoroethoxy)-1,2,5-oxadiazole-3-carboxamide], for which the half-maximal inhibitory concentration (IC50) in experiment [1] came to 51 nM; in experiment [2] it was 19 nM.

Take `O=C(CCC(F)(F)F)N[C@@H](c1cnn2cc([C@@H](NC(=O)c3nonc3OCCF)C3CCC(F)(F)CC3)nc2c1)C1CC1` [Example 384, N—((S)-(7-((R)-Cyclopropyl(4,4,4-trifluorobutanamido)methyl)imidazo[1,2-b]pyridazin-2-yl)(4,4-difluorocyclohexyl)methyl)-4-(2-fluoroethoxy)-1,2,5-oxadiazole-3-carboxamide]: the figures for the IC50 in experiment [1] and in experiment [2] were 66 nM and 31 nM, respectively.

For the molecule `O=C(CC1CC(F)(F)C1)N[C@@H](c1cnn2cc([C@@H](NC(=O)c3nonc3COC(F)F)C3CCC(F)(F)CC3)nc2c1)C1CC1` [Example 385, N—((S)-(7-((R)-Cyclopropyl(2-(3,3-difluorocyclobutyl)acetamido)methyl)imidazo[1,2-b]pyridazin-2-yl)(4,4-difluorocyclohexyl)methyl)-4-((difluoromethoxy)methyl)-1,2,5-oxadiazole-3-carboxamide], the IC50 in experiment [1] worked out at 35 nM; in experiment [2], 32 nM.

Take `O=C(CC1CC(F)(F)C1)N[C@@H](c1cnn2cc([C@@H](NC(=O)c3nonc3N3CCC3)C3CCC(F)(F)CC3)nc2c1)C1CC1` [Example 386, 4-(Azetidin-1-yl)-N—((S)-(7-((R)-cyclopropyl(2-(3,3-difluorocyclobutyl)acetamido)methyl)imidazo[1,2-b]pyridazin-2-yl)(4,4-difluorocyclohexyl)methyl)-1,2,5-oxadiazole-3-carboxamide]: the IC50 in experiment [1] came out at 69 nM; in experiment [2] it was 230 nM.

For the molecule `CC(C)(F)c1nonc1C(=O)N[C@H](c1cn2ncc([C@H](NC(=O)CCC(F)(F)F)C3CC3)cc2n1)C1CCC(F)(F)CC1` [Example 388, N—((S)-(7-((R)-Cyclopropyl(4,4,4-trifluorobutanamido)methyl)imidazo[1,2-b]pyridazin-2-yl)(4,4-difluorocyclohexyl)methyl)-4-(2-fluoropropan-2-yl)-1,2,5-oxadiazole-3-carboxamide], the IC50 is 85 nM in experiment [1] and 100 nM in experiment [2].

Regarding `O=C(CC1CC(F)(F)C1)N[C@@H](c1cnn2cc([C@@H](NC(=O)c3nonc3OCC(F)F)C3CCC(F)(F)CC3)nc2c1)C1CC1` [Example 389, N—((S)-(7-((R)-Cyclopropyl(2-(3,3-difluorocyclobutyl)acetamido)methyl)imidazo[1,2-b]pyridazin-2-yl)(4,4-difluorocyclohexyl)methyl)-4-(2,2-difluoroethoxy)-1,2,5-oxadiazole-3-carboxamide], the results for the IC50 in experiment [1] and in experiment [2] were 56 nM and 29 nM, respectively.

Turning to `O=C(CCC(F)F)N[C@@H](c1cnn2cc([C@@H](NC(=O)c3nonc3OCC(F)F)C3CCC(F)(F)CC3)nc2c1)C1CC1` [Example 390, N—((S)-(7-((R)-Cyclopropyl(4,4-difluorobutanamido)methyl)imidazo[1,2-b]pyridazin-2-yl)(4,4-difluorocyclohexyl)methyl)-4-(2,2-difluoroethoxy)-1,2,5-oxadiazole-3-carboxamide], the IC50 in experiment [1] was 86 nM; in experiment [2], 130 nM.

Take `CCOc1nonc1C(=O)N[C@H](c1cn2ncc([C@H](NC(=O)CC3CC(F)(F)C3)C3CC3)cc2n1)C1CCC(F)(F)CC1` [Example 391, N—((S)-(7-((R)-Cyclopropyl(2-(3,3-difluorocyclobutyl)acetamido)methyl)imidazo[1,2-b]pyridazin-2-yl)(4,4-difluorocyclohexyl)methyl)-4-ethoxy-1,2,5-oxadiazole-3-carboxamide]: the IC50 came out at 43 nM in experiment [1] and 47 nM in experiment [2].
